Patent publication US20140057950A1, “DERIVATIVES OF ENGLERIN FOR THE TREATMENT OF CANCER” (MAX-PLANCK-GESELLSCHAFT ZUR FORDERUNG DE WISSENSCHAFTEN E.V., priority 2010, published 2014)

Each compound was assayed on human kidney carcinoma cell line A498 (assay: Cell proliferation assay (WST-1), A498). Conditions: A498 cells, 48 hours treatment.
Format: cell-based
Protocol: A498 cells were purchased from German Collection of Microorganisms and Cell Cultures, Germany. RC-124 cell line was purchased from CLS, Germany. Minimum Essential Medium (MEM), McCoy's 5a and Dulbecco's Modified Eagle's Medium (DMEM) were purchased from PAA, Austria. Fetal calf serum was purchased from Invitrogen, Germany. Non-essential amino acids and sodium pyruvate were purchased from Sigma-Aldrich, Germany.
The human kidney carcinoma cell line A498 was cultured in Minimum Essential Medium (MEM, with Earl's salts). The African green monkey cell line BSC-1 and the human embryonic kidney cell line HEK293 were maintained in Dulbecco's Modified Eagle's Medium (DMEM). The human kidney cell line RC-124 was cultured in McCoy's 5a medium. All media were supplemented with 10% fetal calf serum and penicillin and streptomycin. The cells were maintained at 37° C. in a 5% CO2 humidified atmosphere. Cells were discarded after 20 passages.
Cell proliferation was determined as a function of the metabolic activity by means of the cell proliferation reagent WST-1 (Roche, Mannheim Germany). 4000 cells were seeded in quadruplicates into the wells of 96 well plates and were allowed to attach for 24 hours prior to treatment with different compound concentrations for 48 hours. All samples contained 0.1% DMSO. After the treatment, the WST-1 reagent was added to the cells according to the manufacturer's protocol. The absorbance was measured with the Inifinite® M200 plate reader (Tecan, Austria) at 450/690 nm. Mean values (n=4) were used to generate dose-response curves by fitting to a four-parameter IC50 equation. The IC50 values for each compound were calculated with the software GraFit 5.0.
The following IC50 values were obtained for the human kidney carcinoma cell line A498. Very similar IC50 values were obtained for the African green monkey cell line BSC-1, the human embryonic kidney cell line HEK293 and the human kidney cell line RC-124.

SMILES	IC50 [nM]
CC(C)[C@@]12C[C@@H](OC(=O)CO)C(C)(O1)[C@@H]1CC[C@@H](C)[C@H]1[C@@H]2OC(=O)C1CCc2ccccc2C1 (stereo partly drawn) [Compound 37]	30 to 100
CC(C)C12C[C@@H](OC(=O)CO)[C@@](C)(O1)[C@@H]1CC[C@@H](C)[C@H]1[C@@H]2OC(=O)/C=C/c1ccc(Cl)cc1 [Compound 19]	500 to 5000
CC(C)[C@@]12C[C@@H](OC(=O)CO)C(C)(O1)[C@@H]1CC[C@@H](C)[C@H]1[C@@H]2OC(=O)c1ccc(C2(C(F)(F)F)N=N2)cc1 [Compound 41]	30 to 100
CC(C)C12C[C@@H](OC(=O)CO)[C@@](C)(O1)[C@@H]1CC[C@@H](C)[C@H]1[C@@H]2OC(=O)c1ccc([N+](=O)[O-])cc1 [Compound 30]	500 to 5000
CC(C)C12C[C@@H](OC(=O)[C@@H](C)O)[C@@](C)(O1)[C@@H]1CC[C@@H](C)[C@H]1C2OC(=O)/C=C/c1ccccc1 (stereo partly drawn) [Compound 53]	100 to 500
COCC(=O)O[C@@H]1C[C@]2(C(C)C)OC1(C)[C@@H]1CC[C@@H](C)[C@H]1[C@@H]2OC(=O)/C=C/c1ccccc1 [Compound 43]	500 to 5000
CC(C)C12C[C@@H](OC(=O)CO)[C@@](C)(O1)[C@@H]1CC[C@@H](C)[C@H]1[C@@H]2OC(=O)c1ccc(Cl)cc1 [Compound 29]	500 to 5000
CC(C)C12C[C@@H](OC(=O)CO)[C@@](C)(O1)[C@@H]1CC[C@@H](C)[C@H]1[C@@H]2OC(=O)/C=C/c1ccc(F)cc1 [Compound 18]	500 to 5000
CC(C)C12C[C@@H](OC(=O)CO)[C@@](C)(O1)[C@@H]1CC[C@@H](C)[C@H]1[C@@H]2OC(=O)c1ccc(Cl)c(Cl)c1 [Compound 31]	100 to 500
C#CCOCC(=O)O[C@@H]1C[C@]2(C(C)C)OC1(C)[C@@H]1CC[C@@H](C)[C@H]1[C@@H]2OC(=O)/C=C/c1ccccc1 [Compound 46]	500 to 5000
CC(C)C12C[C@@H](OC(=O)CO)[C@@](C)(O1)[C@@H]1CC[C@@H](C)[C@H]1[C@@H]2OC(=O)c1ccc2ccccc2c1 [Compound 16]	< 30
CC(C)C12C[C@@H](OC(=O)[C@@H](C)O)[C@@](C)(O1)[C@@H]1CC[C@@H](C)[C@H]1C2OC(=O)c1ccc2ccccc2c1 (stereo partly drawn) [Compound 55]	30 to 100
CC(C)C12C[C@@H](OC(=O)[C@H](C)O)[C@@](C)(O1)[C@@H]1CC[C@@H](C)[C@H]1C2OC(=O)/C=C/c1ccccc1 (stereo partly drawn) [Compound 52]	500 to 5000
C#CC[C@@H](O)C(=O)O[C@@H]1CC2(C(C)C)O[C@@]1(C)[C@@H]1CC[C@@H](C)[C@H]1C2OC(=O)c1ccc(C2(C(F)(F)F)N=N2)cc1 (stereo partly drawn) [Compound 58]	500 to 5000
CC(C)C12C[C@@H](OC(=O)[C@H](C)O)[C@@](C)(O1)[C@@H]1CC[C@@H](C)[C@H]1C2OC(=O)c1ccc2ccccc2c1 (stereo partly drawn) [Compound 54]	100 to 500
CC(C)[C@@]12C[C@@H](OC(=O)CO)C(C)(O1)[C@@H]1CC[C@@H](C)[C@H]1[C@@H]2OC(=O)C1CCC2CCCCC2C1 (stereo partly drawn) [Compound 38]	30 to 100
CC(C)[C@@]12C[C@@H](OC(=O)CO)C(C)(O1)[C@@H]1CC[C@@H](C)[C@H]1[C@@H]2OC(=O)c1ccc2c(c1)CCCC2 [Compound 36]	< 30
Cc1c(C(=O)O[C@H]2[C@@H]3[C@H](C)CC[C@H]3C3(C)O[C@@]2(C(C)C)C[C@H]3OC(=O)CO)ccc2ccccc12 [Compound 39]	< 30
CC(C)C12C[C@@H](OC(=O)CO)[C@@](C)(O1)[C@@H]1CC[C@@H](C)[C@H]1[C@@H]2OC(=O)/C=C/c1c(F)cccc1Cl [Compound 24]	30 to 100
CC(C)C12C[C@@H](OC(=O)CO)[C@@](C)(O1)[C@@H]1CC[C@@H](C)[C@H]1[C@@H]2OC(=O)/C=C/c1ccc2c(c1)OCO2 [Compound 23]	500 to 5000
C[C@@H]1CC[C@@H]2[C@@H]1[C@H](OC(=O)/C=C/c1ccccc1)[C@]1(C)C[C@@H](OC(=O)CO)[C@@]2(C)O1 [Compound 14]	500 to 5000
CCC12C[C@@H](OC(=O)CO)[C@@](C)(O1)[C@@H]1CC[C@@H](C)[C@H]1[C@@H]2OC(=O)/C=C/c1ccccc1 [Compound 13]	500 to 5000
C#CC[C@@H](O)C(=O)O[C@@H]1CC2(C(C)C)O[C@@]1(C)[C@@H]1CC[C@@H](C)[C@H]1C2OC(=O)c1ccc2ccccc2c1 (stereo partly drawn) [Compound 57]	500 to 5000
C/C(=C\c1ccccc1)C(=O)O[C@H]1[C@@H]2[C@H](C)CC[C@H]2[C@]2(C)OC1(C(C)C)C[C@H]2OC(=O)CO [Compound 26]	500 to 5000
C#CCCCC(=O)O[C@@H]1C[C@]2(C(C)C)OC1(C)[C@@H]1CC[C@@H](C)[C@H]1[C@@H]2OC(=O)/C=C/c1ccccc1 [Compound 45]	500 to 5000
C#CCCCC(=O)OCC(=O)O[C@@H]1C[C@]2(C(C)C)OC1(C)[C@@H]1CC[C@@H](C)[C@H]1[C@@H]2OC(=O)/C=C/c1ccccc1 [Compound 44]	100 to 500
CC(C)C12C[C@@H](OC(=O)CO)[C@@](C)(O1)[C@@H]1CC[C@@H](C)[C@H]1[C@@H]2OC(=O)/C=C/C1CCCCC1 [Compound 15]	< 30
C/C(=C\C(=O)O[C@H]1[C@@H]2[C@H](C)CC[C@H]2[C@]2(C)OC1(C(C)C)C[C@H]2OC(=O)CO)c1ccccc1 [Compound 17]	< 30
C#CC[C@@H](O)C(=O)O[C@@H]1CC2(C(C)C)O[C@@]1(C)[C@@H]1CC[C@@H](C)[C@H]1C2OC(=O)c1ccc2c(c1)CCCC2 (stereo partly drawn) [Compound 56]	500 to 5000
Cc1c(C(=O)O[C@H]2[C@@H]3[C@H](C)CC[C@H]3C3(C)O[C@@]2(C(C)C)C[C@H]3OC(=O)CO)ccc2c1CCCC2 [Compound 40]	< 30
